The record followed here is patent publication US6995153B2, “Fused bicyclic pyrimidine derivatives” (Kyorin Pharmaceutical. Co., Ltd., priority 2002, dated 2006).

Structures are written as SMILES.

As usually defined, the Kb is the affinity of an antagonist, worked out from how it opposes an agonist. By melting point is commonly meant the temperature of the solid-liquid transition.

In one data set the target is T1, NK1 receptor (Cavia porcellus, UniProt P30547).
T1 construct: from tissue; host or cells: isolated guinea pig ileum
T1 sequence (P30547 whole entry): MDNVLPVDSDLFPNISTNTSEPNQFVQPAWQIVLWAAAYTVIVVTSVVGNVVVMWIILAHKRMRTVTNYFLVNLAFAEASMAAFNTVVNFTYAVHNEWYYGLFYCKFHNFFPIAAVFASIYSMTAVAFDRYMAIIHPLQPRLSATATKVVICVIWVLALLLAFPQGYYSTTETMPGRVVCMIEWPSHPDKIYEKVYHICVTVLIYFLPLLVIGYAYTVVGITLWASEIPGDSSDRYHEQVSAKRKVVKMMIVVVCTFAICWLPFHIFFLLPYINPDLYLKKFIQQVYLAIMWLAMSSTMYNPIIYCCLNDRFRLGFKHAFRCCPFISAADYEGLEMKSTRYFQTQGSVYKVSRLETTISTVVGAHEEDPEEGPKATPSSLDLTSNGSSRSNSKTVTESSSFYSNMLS
The experiment in a line: Test for NK1 receptor antagonist: substance P concentration-response in isolated guinea pig ileum, Schild analysis. The settings on record: against substance P, 10 min pretreatment, method of Schild. On the procedure: (1) Test for NK1 Receptor Antagonist
The method used was according to the method proposed by S. Dion et al.(Dion et al., Life Sciences 41(1987): 2269), to which minor modifications were made.
Guinea pigs were stunned by a blow on the head and were exsanguinated from the carotid artery and ilea were isolated. The ileum was mounted in an organ bath containing Tyrode's solution which was maintained at 32° C., and gased with 95% O2 and 5% CO2. The ileum was subjected to a resting tension of 1-gram and allowed to equilibrate for 20 minutes before the experiment was started. As a control, a concentration-response curve for substance P in the absence of any of test compounds was used. The NK1 receptor antagonist activity of each test compound was determined by a concentration-response curve obtained by pretreating at least three concentrations of the test compound for 10 minutes and subsequently applying substance P in a cumulative manner. The Kb values were determined according to the method of Schild and the results are shown in Table 1 (Schild Brit. J. Pharmacol. 14(1959): 49).
The composition of the Tyrode's solution was as follows: NaCl=136.9, KCl=2.7, CaCl2.2H2O=2.5, MgCl2.6H2O=1.0, NaH2PO4.2H2O=0.4, NaHCO3=11.9, glucose=11.1(mmol/L)

The test system of a further data set is Guinea pigs. As to the kind of experiment: Cystometry test on guinea pigs with cut spinal cord (effective bladder capacity). The settings on record: guinea pig. The data set is classed as in vivo. The text has this:
(2) Cystometry Test on Guinea Pigs
The method used was according to the method proposed by J S. Peterson et al. (Peterson J S. et al., J. Pharmacol. Methods 21(1989): 231), to which minor modifications were made.
Guinea pigs were anesthetized with halothane and the tenth thoracic spinal cord was cut in each animal. Subsequently, both ureters were ligated and were cut on the kidney-side. Polyethylene catheters were inserted into the bladder to provide an injection pathway for physiological saline and a pathway for the measurement of intravesical pressure. Each animal was restricted in a Ballman cage and was left for more than 2 hours. Subsequently, room-temperature saline was injected through the bladder catheter into the bladder at a rate of 6 mL/hr to conduct a cystometry test. Once the effective bladder capacity was stabilized, a test compound was intravenously administered into the jugular vein. The effective bladder capacity is defined as the volume of saline injected from one urination to the next. The effect of each test compound was determined as the increase in the average bladder volume, which was determined based on the average bladder volume measured 30 minutes prior to the administration of the test compound and the average bladder volume measured every 30 minutes after the administration of the test compound.

`Cc1ccccc1-c1nc(N2CCCN(C)CC2)nc2c1C(=O)N(Cc1cc(C(F)(F)F)cc(C(F)(F)F)c1)CCCO2` [Example 26, 5-[3,5-bis(trifluoromethyl)benzyl]-9-(4-methylhomopiperazine-1-yl)-7-(2-methylphenyl)-6-oxo-2,3,4,5-tetrahydro-6H-pyrimido[4,5-b][1,5]oxazocine]: the Kb on NK1 receptor amounted to 0.398 nM. On the same count and under the same terms, the result for `COc1ccccc1-c1nc(N2CCS(=O)(=O)CC2)nc2c1C(=O)N(Cc1cc(C(F)(F)F)cc(C(F)(F)F)c1)CCCO2` [Example 43, 5-[3,5-bis(trifluoromethyl)benzyl]-9-(1,1-dioxothiomorpholine-4-yl)-7-(2-methoxyphenyl)-6-oxo-2,3,4,5-tetrahydro-6H-pyrimido[4,5-b][1,5]oxazocine] reads 0.123 nM; that for `CC(=O)NC1CCN(c2nc3c(c(-c4ccccc4C)n2)C(=O)N(Cc2cc(C(F)(F)F)cc(C(F)(F)F)c2)CCCO3)C1` (centres unmarked) [Example 27, 5-[3,5-bis(trifluoromethyl)benzyl]-9-[3-(acetylamino)pyrrolidine-1-yl]-7-(2-methylphenyl)-6-oxo-2,3,4,5-tetrahydro-6H-pyrimido[4,5-b][1,5]oxazocine], 0.44 nM; that for `Cc1ccccc1-c1nc(N2CCC(N(C)C)C2)nc2c1C(=O)N(Cc1cc(C(F)(F)F)cc(C(F)(F)F)c1)CCCO2` (centres unmarked) [Example 25, 5-[3,5-bis(trifluoromethyl)benzyl]-9-[3-(dimethylamino)pyrrolidine-1-yl]-7-(2-methylphenyl)-6-oxo-2,3,4,5-tetrahydro-6H-pyrimido[4,5-b][1,5]oxazocine], 0.427 nM. Take `CC(=O)N1CCCN(c2nc3c(c(-c4ccccc4C)n2)C(=O)N(Cc2cc(C(F)(F)F)cc(C(F)(F)F)c2)CCCO3)CC1` [Example 41, 9-(4-acetylhomopiperazine-1-yl)-5-[3,5-bis(trifluoromethyl)benzyl]-7-(2-methylphenyl)-6-oxo-2,3,4,5-tetrahydro-6H-pyrimido[4,5-b][1,5]oxazocine]: on NK1 receptor, the Kb is 0.308 nM. The “Increase in bladder capacity (%)” value in the data set on Guinea pigs (0.3 mg/kg i.v.) was 36.8%. As to `Cc1ccccc1-c1nc(N2CCN(C)CC2)nc2c1C(=O)N(Cc1cc(C(F)(F)F)cc(C(F)(F)F)c1)CCCO2` [Example 44, 5-[3,5-bis(trifluoromethyl)benzyl]-7-(2-methylphenyl)-9-(4-methylpiperazine-1-yl)-6-oxo-2,3,4,5-tetrahydro-6H-pyrimido[4,5-b][1,5]oxazocine], the Kb at NK1 receptor stood at 0.00631 nM. The same measure, in the same setting: the result for `CC(=O)NC1CCN(c2nc3c(c(-c4ccccc4C)n2)C(=O)N(Cc2cc(C(F)(F)F)cc(C(F)(F)F)c2)CCCO3)CC1` [Example 37, 9-[4-(acetylamino)piperidine-1-yl]-5-[3,5-bis(trifluoromethyl)benzyl]-7-(2-methylphenyl)-6-oxo-2,3,4,5-tetrahydro-6H-pyrimido[4,5-b][1,5]oxazocine] reads 0.151 nM. On the same count and under the same terms, under `COc1ccccc1-c1nc(N2CCN(C(C)=O)CC2)nc2c1C(=O)N(Cc1cc(C(F)(F)F)cc(C(F)(F)F)c1)CCCO2` [Example 29, 9-(4-acetylpiperazine-1-yl)-5-[3,5-bis(trifluoromethyl)benzyl]-7-(2-methoxyphenyl)-6-oxo-2,3,4,5-tetrahydro-6H-pyrimido[4,5-b][1,5]oxazocine] stands 0.1 nM. Regarding `Cc1ccc(-c2c3n(c(=O)c4ncccc24)CC[C@@H](C)CN(Cc2cc(C(F)(F)F)cc(C(F)(F)F)c2)C3=O)cc1` [TAK-637, reference compound], on NK1 receptor, the Kb came out at 0.269 nM. Besides, the entries for the “Increase in bladder capacity (%)” value with Guinea pigs (0.3 mg/kg i.v.), with Guinea pigs (1 mg/kg i.v.) and in the data set on Guinea pigs (3 mg/kg i.v.) were 12.0%, 23.8% and 20.5%, respectively. `Cc1ccccc1-c1nc(N2CCC(NS(C)(=O)=O)CC2)nc2c1C(=O)N(Cc1cc(C(F)(F)F)cc(C(F)(F)F)c1)CCCO2` [Example 38, 5-[3,5-bis(trifluoromethyl)benzyl]-9-[4-(methylsulfonylamino)piperidine-1-yl]-7-(2-methylphenyl)-6-oxo-2,3,4,5-tetrahydro-6H-pyrimido[4,5-b][1,5]oxazocine]: the Kb at NK1 receptor is 0.214 nM. For the compound `Cc1ccccc1-c1nc(N2CCN(c3ncccn3)CC2)nc2c1C(=O)N(Cc1cc(C(F)(F)F)cc(C(F)(F)F)c1)CCCO2` [Example 14, 5-[3,5-bis(trifluoromethyl)benzyl]-7-(2-methylphenyl)-6-oxo-9-[4-(pyrimidine-2-yl)piperazine-1-yl]-2,3,4,5-tetrahydro-6H-pyrimido[4,5-b][1,5]oxazocine], the Kb at NK1 receptor worked out at 0.798 nM. `CC(=O)N1CCN(c2nc3c(c(-c4ccccc4C)n2)C(=O)N(Cc2cc(C(F)(F)F)cc(C(F)(F)F)c2)CCCO3)CC1` [Example 16, 9-(4-acetylpiperazine-1-yl)-5-[3,5-bis(trifluoromethyl)benzyl]-7-(2-methylphenyl)-6-oxo-2,3,4,5-tetrahydro-6H-pyrimido[4,5-b][1,5]oxazocine] had a melting point of 160.5 to 163.5 °C. The Kb at NK1 receptor stood at 0.105 nM. Besides, in the data set on Guinea pigs (0.3 mg/kg i.v.), the “Increase in bladder capacity (%)” value is reported as 59.4%. On to `Cc1ccccc1-c1nc(-n2ccnc2)nc2c1C(=O)N(Cc1cc(C(F)(F)F)cc(C(F)(F)F)c1)CCCO2` [Example 18, 5-[3,5-bis(trifluoromethyl)benzyl]-9-(imidazole-1-yl)-7-(2-methylphenyl)-6-oxo-2,3,4,5-tetrahydro-6H-pyrimido[4,5-b][1,5]oxazocine], for which the Kb on NK1 receptor is 0.459 nM.

In the case of `O=C1c2c(nc(N3CCOCC3)nc2-c2ccccc2F)OCCCN1Cc1cc(C(F)(F)F)cc(C(F)(F)F)c1` [Example 2, 5-[3,5-bis(trifluoromethyl)benzyl]-7-(2-fluorophenyl)-9-(morpholine-4-yl)-6-oxo-2,3,4,5-tetrahydro-6H-pyrimido[4,5-b][1,5]oxazocine], the Kb on NK1 receptor is 0.294 nM.

For `O=C1c2c(nc(N3CCC(N4CCCC4)CC3)nc2-c2ccc(F)cc2)OCCCN1Cc1cc(C(F)(F)F)cc(C(F)(F)F)c1` [Example 13, 5-[3,5-bis(trifluoromethyl)benzyl]-7-(4-fluorophenyl)-6-oxo-9-[4-(pyrrolidine-1-yl)piperidine-1-yl]-2,3,4,5-tetrahydro-6H-pyrimido[4,5-b][1,5]oxazocine], the Kb on NK1 receptor was 0.217 nM. As for `Cc1ccccc1-c1nc(N2CCS(=O)(=O)CC2)nc2c1C(=O)N(Cc1cc(C(F)(F)F)cc(C(F)(F)F)c1)CCCO2` [Example 20, 5-[3,5-bis(trifluoromethyl)benzyl]-9-(1,1-dioxothiomorpholine-4-yl)-7-(2-methylphenyl)-6-oxo-2,3,4,5-tetrahydro-6H-pyrimido[4,5-b][1,5]oxazocine], the Kb at NK1 receptor was 0.0794 nM. Besides, the “Increase in bladder capacity (%)” value in the data set on Guinea pigs (0.3 mg/kg i.v.) was found to be 40.4%.
